From article PMC9200067 (Clinical and Translational Science, 2022)

Tests used:
Assay in all cases: competitive radioligand binding, recombinant cells
Format in all cases: cell-based
σ1 = σ1 (Homo sapiens, UniProt Q99720)
α1B = target: T1, α1B (Homo sapiens, UniProt P35368)
T1 sequence (P35368 1-520): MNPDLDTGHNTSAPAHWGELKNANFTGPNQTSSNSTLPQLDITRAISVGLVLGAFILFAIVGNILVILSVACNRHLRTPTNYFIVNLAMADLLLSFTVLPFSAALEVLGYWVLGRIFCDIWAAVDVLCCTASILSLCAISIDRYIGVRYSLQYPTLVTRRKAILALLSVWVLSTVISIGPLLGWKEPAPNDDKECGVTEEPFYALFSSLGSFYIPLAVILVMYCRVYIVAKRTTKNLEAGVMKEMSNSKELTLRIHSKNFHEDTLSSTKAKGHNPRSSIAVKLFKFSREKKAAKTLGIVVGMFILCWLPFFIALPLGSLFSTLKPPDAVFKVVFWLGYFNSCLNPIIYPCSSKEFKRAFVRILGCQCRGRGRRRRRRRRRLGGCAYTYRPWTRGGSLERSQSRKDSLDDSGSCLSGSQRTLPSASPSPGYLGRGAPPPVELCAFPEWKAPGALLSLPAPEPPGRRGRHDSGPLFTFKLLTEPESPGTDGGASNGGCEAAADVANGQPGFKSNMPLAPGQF

5-HT4 = 5-HT4 (Homo sapiens, UniProt Q13639)
5-HT4, sequence (Q13639 whole entry): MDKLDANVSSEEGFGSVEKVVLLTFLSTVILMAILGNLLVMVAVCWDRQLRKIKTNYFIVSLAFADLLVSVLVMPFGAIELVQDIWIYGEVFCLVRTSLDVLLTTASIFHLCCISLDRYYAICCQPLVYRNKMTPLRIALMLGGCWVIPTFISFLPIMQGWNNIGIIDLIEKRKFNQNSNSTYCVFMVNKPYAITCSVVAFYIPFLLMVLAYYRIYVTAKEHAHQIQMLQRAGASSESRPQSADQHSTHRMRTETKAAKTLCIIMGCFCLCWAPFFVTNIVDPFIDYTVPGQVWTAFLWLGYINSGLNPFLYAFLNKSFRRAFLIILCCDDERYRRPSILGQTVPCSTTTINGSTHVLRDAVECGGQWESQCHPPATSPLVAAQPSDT

α1D = target: T2, α1D (Homo sapiens, UniProt P25100)
T2 sequence (P25100 1-572): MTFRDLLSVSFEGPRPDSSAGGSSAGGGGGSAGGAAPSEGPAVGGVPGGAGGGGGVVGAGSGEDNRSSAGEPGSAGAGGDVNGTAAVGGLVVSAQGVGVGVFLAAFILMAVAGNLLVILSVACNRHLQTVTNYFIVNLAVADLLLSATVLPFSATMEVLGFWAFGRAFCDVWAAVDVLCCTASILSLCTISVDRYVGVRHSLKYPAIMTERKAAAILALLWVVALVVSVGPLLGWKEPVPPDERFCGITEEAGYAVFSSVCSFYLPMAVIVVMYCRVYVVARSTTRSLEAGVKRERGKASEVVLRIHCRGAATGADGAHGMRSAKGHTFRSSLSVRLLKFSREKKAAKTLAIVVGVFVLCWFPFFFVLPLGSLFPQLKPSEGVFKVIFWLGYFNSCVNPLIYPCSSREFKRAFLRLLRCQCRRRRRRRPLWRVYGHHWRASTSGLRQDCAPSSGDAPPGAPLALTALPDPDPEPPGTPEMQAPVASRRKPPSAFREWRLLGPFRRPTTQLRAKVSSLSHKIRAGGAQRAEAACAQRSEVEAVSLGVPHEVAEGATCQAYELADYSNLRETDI

σ1, sequence (Q99720 whole entry): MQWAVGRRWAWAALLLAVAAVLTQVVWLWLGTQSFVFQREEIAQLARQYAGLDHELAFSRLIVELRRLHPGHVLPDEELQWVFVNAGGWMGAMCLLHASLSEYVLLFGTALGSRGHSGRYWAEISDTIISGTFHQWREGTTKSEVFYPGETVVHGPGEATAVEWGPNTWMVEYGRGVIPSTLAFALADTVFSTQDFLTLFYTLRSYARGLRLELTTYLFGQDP

Ki (σ1): 3980 nM | Ki (α1B): 15 nM | Ki (5-HT4): 10000 nM | Ki (α1D): 27 nM
Compound: O=c1n(CCCN2CCN(c3cccc(Cl)c3)CC2)nc2ccccn12 [trazodone]
